Experiment [1] addresses T1, Hormone-sensitive lipase (HSL) (Homo sapiens, UniProt Q05469).
T1 sequence (Q05469 1-1076): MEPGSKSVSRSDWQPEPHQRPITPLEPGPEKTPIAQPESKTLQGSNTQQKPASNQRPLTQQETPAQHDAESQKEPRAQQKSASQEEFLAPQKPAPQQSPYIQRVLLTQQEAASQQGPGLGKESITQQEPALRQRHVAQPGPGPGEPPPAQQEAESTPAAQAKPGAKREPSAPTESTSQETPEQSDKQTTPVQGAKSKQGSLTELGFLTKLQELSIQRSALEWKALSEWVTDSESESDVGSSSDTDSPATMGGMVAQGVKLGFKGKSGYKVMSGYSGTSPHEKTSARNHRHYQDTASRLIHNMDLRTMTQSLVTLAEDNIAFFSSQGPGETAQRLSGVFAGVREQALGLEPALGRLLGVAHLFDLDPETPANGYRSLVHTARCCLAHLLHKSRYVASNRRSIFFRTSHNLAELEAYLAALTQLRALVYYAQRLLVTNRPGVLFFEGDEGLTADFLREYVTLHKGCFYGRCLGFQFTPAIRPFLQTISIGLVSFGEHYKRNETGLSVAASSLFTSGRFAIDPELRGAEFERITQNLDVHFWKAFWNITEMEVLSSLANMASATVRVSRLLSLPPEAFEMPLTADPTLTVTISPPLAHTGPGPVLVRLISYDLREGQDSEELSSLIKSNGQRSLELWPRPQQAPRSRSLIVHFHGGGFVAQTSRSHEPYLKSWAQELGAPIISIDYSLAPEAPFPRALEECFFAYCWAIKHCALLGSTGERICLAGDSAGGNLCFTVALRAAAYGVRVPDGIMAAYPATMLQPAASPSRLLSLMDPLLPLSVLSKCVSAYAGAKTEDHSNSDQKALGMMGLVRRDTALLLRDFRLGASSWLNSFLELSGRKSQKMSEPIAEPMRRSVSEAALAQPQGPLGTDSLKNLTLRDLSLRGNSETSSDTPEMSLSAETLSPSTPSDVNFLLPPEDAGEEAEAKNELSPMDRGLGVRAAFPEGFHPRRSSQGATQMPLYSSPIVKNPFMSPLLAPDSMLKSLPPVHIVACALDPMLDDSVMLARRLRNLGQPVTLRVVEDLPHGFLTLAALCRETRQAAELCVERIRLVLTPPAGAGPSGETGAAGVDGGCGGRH
Kind of experiment: Hormone-sensitive lipase (HSL) inhibition assay, 3H-labeled triolein or MOME substrate. In kind it is biochemical. The conditions noted are these: read-out: HSL inhibition (IC50). From the text: Hormone-sensitive lipase (HSL) [classified as a triacylglycerol lipase, EC 3.1.1.3, in accordance with the Recommendations of the Nomenclature Committee of the International Union of Biochemistry and Molecular Biology (available on the World Wide Web at the following address: http://www.chem.qmw.ac.uk/iubmb/enzyme/)]
Materials. The Hormone-sensitive lipase employed was provided by Dr. Cecilia Holm of Lund University, Sweden, or produced and purified by Novo Nordisk (NN) using the reagents and protocols employed by Dr. Holm. The substrates used are: ^3H-labeled triolein (TO) from Amersham, Buckinghamshire, U.K. cat No. TRA191; 5-20 Ci/mmol dissolved in toluene, triolein (Sigma, Cat. No. T-1740) and mono-oleoyl-2-O-mono-oleylglycerol (MOME) synthesized at (NN) using the protocols provided by Dr. Cecilia Holm, Lund University, Sweden. Phosphatidyl choline (PC) and phosphatidyl inositol (PI) are from Sigma (St Luis Mo., cat. Nos. P-3556 and P-5954, respectively). All other reagents are of commercial grade and obtained from various commercial sources.
Methods. The preparation of the substrates is as follows:
TO: 30 μl PC:PI (20 mg/ml solution of PC:PI 3:1 prepared in chloroform)+128 μl cold TO+15 μl ^3H-TO
MOME: 30 μl PC:PI+100 μl cold MOME+200 μl ^3H-MOME
They are then evaporated under a gentle stream of N2 followed by 20-30 minutes in a Speedvac™ apparatus to ensure the absence of residual solvent.
The samples are prepared as follows:
Samples/controls: 78 μl PED-BSA+20 μl inhibitor (various concentrations)+2 μl HSL (undiluted 0.12 mg/ml). If no inhibitors are being tested, the reaction contains 98 μl PED-BSA+2 μl HSL.
The samples are put on ice and then sonicated as follows:
With TO as substrate, add 2 ml potassium buffer (0.1M potassium phosphate, pH 7) and then sonicate twice for 1 minute, with a 1-minute interval between cycles. Add an additional 1 ml potassium buffer and sonicate 4 times for 30 seconds, with a 30 second interval in between cycles. To finish, add 1 ml BSA 20%-in potassium buffer, mix by inversion and store on ice until use.
With MOME as substrate: add 2 ml potassium buffer and then sonicate twice for 1 minute, with a 1 minute interval between cycles. Add 1.6 ml potassium buffer and sonicate 4 times for 30 seconds, with a 30-second interval between cycles. To finish, add 0.4 ml BSA 20%-buffer, mix by inversion and store on ice until use.
The enzyme reaction is run at 37° C. The substrate mix is added to the various reactions at 10 second intervals, incubated for 30 minutes in a water bath and then stopped with 3.25 ml of a solution containing CH3OH:CHCl3:heptane (10:9:7). After the addition of 1.05 ml potassium buffer pH10.5, the sample is vortexed thoroughly and centrifuged for 20 min at 2000 r.p.m. One ml of the upper phase is added to 10 ml scintillation fluid, and mixed thoroughly by shaking.
The samples are then counted, 5 min per vial, in a scintillation counter.

Experiment [2] concerns the target T2, Hepatic lipase (HL) (Homo sapiens, UniProt P11150).
T2 sequence (P11150 23-499): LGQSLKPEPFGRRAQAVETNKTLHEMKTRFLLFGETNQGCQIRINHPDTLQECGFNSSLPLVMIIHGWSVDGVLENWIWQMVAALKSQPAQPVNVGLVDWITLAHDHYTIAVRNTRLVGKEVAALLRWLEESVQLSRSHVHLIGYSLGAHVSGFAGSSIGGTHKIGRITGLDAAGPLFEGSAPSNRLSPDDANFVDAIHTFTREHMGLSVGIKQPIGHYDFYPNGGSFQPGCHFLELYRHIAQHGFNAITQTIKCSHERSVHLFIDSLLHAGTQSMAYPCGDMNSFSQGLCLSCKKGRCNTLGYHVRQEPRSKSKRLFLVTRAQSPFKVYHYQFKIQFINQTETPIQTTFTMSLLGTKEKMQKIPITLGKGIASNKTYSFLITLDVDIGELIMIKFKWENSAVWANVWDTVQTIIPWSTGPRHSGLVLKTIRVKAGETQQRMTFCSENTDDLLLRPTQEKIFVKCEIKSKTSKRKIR
Kind of experiment: Hepatic lipase (HL) inhibition assay, 3H-triolein substrate. Format: biochemical. The conditions noted are these: read-out: HL inhibition (% inh. at 50 μM). From the text: Hepatic Lipase (HL) [classified as a triacylglycerol lipase, EC 3.1.1.3, in accordance with the Recommendations of the Nomenclature Committee of the International Union of Biochemistry and Molecular Biology (available on the World Wide Web at the following address: http://www.chem.qmw.ac.uk/iubmb/enzyme/)]
Materials. The hepatic lipase employed was obtained from Dr. Howard Wong of the University of California at Los Angeles (UCLA), USA, or produced and purified using the methods and a cell line provided by Dr. Wong's laboratory. ^3H-triolein (TO) from Amersham, Buckinghamshire, U.K., cat No. TRA191; 5-20 Ci/mmol dissolved in toluene and triolein (Sigma, Cat. No. T-1740). All other reagents are of commercial grade and obtained from various commercial sources.
50 μl TO in a 20 ml scintillation vial and evaporate with N2 for 5 minutes.
Add 1 ml 10% gum arabic and 1.25 ml Tris-Cl pH 8.5 and 2 ml MilliQ water.
Sonicate, on ice, 16 times for 30 seconds with a 30-second interval between cycles.
Add 2.5 ml of 5 M NaCl+2.5 ml BSA (10% in Milli Q, pH 8)+3.25 ml Milli Q
Total volume: 12.5 ml (for 80 reactions )
If an inhibitor is going to be used, it should be incubated with the 50 μl HL (of a 125 mU/ml solution) for 70 minutes at 25° C. A 5 μl aliquot from the incubated 50 μl is added to 150 μl assay mix+45 μl Milli Q™ water and mixed.
Incubate for exactly 30 minutes at 25° C.
Stop the reaction with Methanol:chloroform:heptane 10:9:7: 3.25 ml/vial, mix; then add 1.05 ml buffer (100 mM boric acid, 100 mM potassium carbonate pH 10.5), mix for 10 seconds per vial.
Centrifuge for 20 min/2000 rpm
Take 1 ml of the upper phase+10 ml scintillation fluid and mix by shaking by hand.
Scintillation count for 5 minutes per vial.

In patent US20020082254A1, “Compounds for treating disorders where a decreased level of plasma FFA is desired” (priority 2000, published 2002) one finds IC50 and inhibition data, which are given here for 1 molecule.

As to `O=C(NN1CCc2ccccc2C1)Oc1ccccc1` [Example 1, (3,4-Dihydro-1H-isoquinolin-2-yl)-carbamic Acid Phenyl Ester], in experiment [1], the IC50 (usually the concentration that gives 50% inhibition) worked out at 200 nM. The inhibition (usually the relative decrease from the control value, in per cent) at 50 µM in experiment [2] is 5%.
